Where a name gives a salt, the structure may show the parent alone.
Experiments:
[1] = molecular target: T1, human H1 receptor (Homo sapiens, UniProt P35367); test: Histamine H1 functional antagonist assay (FLIPR): antagonist pA2; format: cell-based
T1 construct: expressed in transfected cells
Procedure: The human H1 receptor is cloned using known procedures described in the literature [Biochem. Biophys. Res. Commun., 201(2):894 (1994)]. Chinese hamster ovary (CHO) cells stably expressing the human H1 receptor are generated according to known procedures described in the literature [Br. J. Pharmacol., 117(6):1071 (1996)].
The histamine H1 receptor expressing CHO cells are seeded into non-coated black-walled clear bottom 96-well tissue culture plates as described above.
Following overnight culture, growth medium is removed from each well, washed with 200 μl phosphate buffered saline (PBS) and is replaced with 50 μl loading dye (250 μM Brilliant Black, 1 μM Fluo-4 diluted in Tyrodes buffer+probenecid (145 mM NaCl, 2.5 mM KCl, 10 mM HEPES, 10 mM D-glucose, 1.2 mM MgCl2, 1.5 mM CaCl2, 2.5 mM probenecid, pH adjusted to 7.40 with NaOH 1.0 M)). Cells are incubated for 45 min at 37° C. The loading buffer is removed and the cells are washed as above, and 90 μl of Tyrodes buffer+probenecid is added to each well. 10 μl of test compound, diluted to the required concentration in Tyrodes buffer+probenecid (or 10 μl Tyrodes buffer+probenecid as a control) is added to each well and the plate is incubated for 30 min at 37° C., 5% CO2.
The plates are then placed into a FLIPR™ (Molecular Devices, UK) to monitor cell fluorescence (λex=488 nm, λEM=540 nm) in the manner described in Sullivan et al., (In: Lambert DG (ed.), Calcium Signaling Protocols, New Jersey: Humana Press, 1999, 125-136) before and after the addition of 50 μl histamine over a concentration range of 1 mM-0.1 nM. The resultant concentration response curves are analysed by non-linear regression using a standard four parameter logistic equation to determine the histamine EC50, the concentration of histamine required to produce a response of 50% of the maximum response to histamine. The antagonist pA2 is calculated using the following standard equation: pA2=log(DR−1)−log[B] where DR=dose ratio, defined as EC50antagonist-treated/EC50control and [B]=concentration of antagonist.

[2] = CNS penetration by bolus administration; format: in vivo, male CD Sprague Dawley rats; details: 1 mg/kg intravenously, blood and brain at 5 min post-dose
Procedure: Compounds are dosed intravenously at a nominal dose level of 1 mg/kg to male CD Sprague Dawley rats. Compounds are formulated in 5% DMSO/45% PEG200/50% water. Blood samples are taken under terminal anaesthesia with isoflurane at 5 min post-dose and the brains are also removed for assessment of brain penetration. Blood samples are taken directly into heparinised tubes. Blood samples are prepared for analysis using protein precipitation and brain samples are prepared using extraction of drug from brain by homogenisation and subsequent protein precipitation. The concentration of parent drug in blood and brain extracts is determined by quantitative LC-MS/MS analysis using compound-specific mass transitions.

T1 sequence (P35367 whole entry): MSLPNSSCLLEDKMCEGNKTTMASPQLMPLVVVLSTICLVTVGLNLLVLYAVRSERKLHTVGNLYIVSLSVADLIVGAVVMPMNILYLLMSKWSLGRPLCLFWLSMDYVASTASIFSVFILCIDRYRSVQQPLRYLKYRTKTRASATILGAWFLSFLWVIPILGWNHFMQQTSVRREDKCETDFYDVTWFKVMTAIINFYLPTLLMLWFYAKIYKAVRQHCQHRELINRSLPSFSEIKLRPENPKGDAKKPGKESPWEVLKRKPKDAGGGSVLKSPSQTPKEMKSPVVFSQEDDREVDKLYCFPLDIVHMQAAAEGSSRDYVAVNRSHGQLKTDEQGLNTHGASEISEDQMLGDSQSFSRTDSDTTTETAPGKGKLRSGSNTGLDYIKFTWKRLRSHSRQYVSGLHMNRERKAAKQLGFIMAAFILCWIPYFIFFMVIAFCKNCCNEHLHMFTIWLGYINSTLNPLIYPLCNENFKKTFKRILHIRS

SMILES	Kb [1] [nM]	CNS penetration [2]
O=C(O)CCc1ccc2cc(Cc3ccccc3)cc(N3CCN(CCc4ccc(OCCCN5CCCCCC5)cc4)CC3)c2n1 [Example 1, 3-[8-{4-[2-(4-{[3-(Hexahydro-1H-azepin-1-yl)propyl]oxy}phenyl)ethyl]-1-piperazinyl}-6-(phenylmethyl)-2-quinolinyl]propanoic Acid, Formate Salt]	< 10	low CNS penetration
CCc1cc(N2CCN(CCc3ccc(OCCCN4CCCCCC4)cc3)CC2)c2nc(CCC(=O)O)ccc2c1 [Example 2, 3-(6-Ethyl-8-{4-[2-(4-{[3-(hexahydro-1H-azepin-1-yl)propyl]oxy}phenyl)ethyl]-1-piperazinyl}-2-quinolinyl)propanoic Acid, Formate Salt]	< 10	low CNS penetration
O=C(O)CCc1ccc2cccc(N3CCN(CCc4ccc(OCCCN5CCCCCC5)cc4)CC3)c2n1 [Example 3, 3-(8-{4-[2-(4-{[3-(Hexahydro-1H-azepin-1-yl)propyl]oxy}phenyl)ethyl]-1-piperazinyl}-2-quinolinyl)propanoic Acid, Formic Acid (1:2)]	< 10	low CNS penetration
O=C(O)CCc1cnc2c(N3CCN(CCc4ccc(OCCCN5CCCCCC5)cc4)CC3)cccc2c1 [Example 5, 3-(8-{4-[2-(4-{[3-(hexahydro-1H-azepin-1-yl)propyl]oxy}phenyl)ethyl]-1-piperazinyl}-3-quinolinyl)propanoic Acid, Formic Acid Salt]	< 100	–
CCCCc1cc(N2CCN(CCc3ccc(OCCCN4CCCCCC4)cc3)CC2)c2nc(CCC(=O)O)ccc2c1 [Example 6, 3-(6-Butyl-8-{4-[2-(4-{[3-(hexahydro-1H-azepin-1-yl)propyl]oxy}phenyl)ethyl]-1-piperazinyl}-2-quinolinyl)propanoic Acid, Formate Salt]	< 10	–
